Laboratory results as given in patent US10071103B2, “Treatments for resistant acne” (VYOME BIOSCIENCES PVT. LTD., priority 2014, dated 2018).
In brackets after ≈: the same amount, converted by molar mass. Read-outs that look alike come from different tables or passages of the source. Blank lines part the entries; values can stand above or below the compound they belong to.

How the values were obtained:
[1] = test system: P. acnes clinical isolates; test: MIC of P. acnes isolated from acne patients (clinical isolates); conditions: Cutibacterium acnes, clinical isolate susceptible to clindamycin and erythromycin;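 further: anaerobic 96-well plate assay at 37 °C over 72 h, with Alamar blue dye as read-out; MIC in µg/mL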
Method: P. acnes were cultured in Brain Heart Infusion Agar (BHIA) at 37° C. for 48 hours under anaerobic condition. […] For bacterial inoculum, P. acnes culture turbidity was adjusted to 0.5 McFarland standard (approximately 1.5×10^8) and further diluted (100 times with sterile BHI broth). Diluted P. acnes suspension (100 μl) was added to each well except sterility control wells (column 12 of 96 well plate). Inoculated plates were incubated at 37° C. for 72 hours under anaerobic condition. After incubation, MIC was determined by adding Alamar blue dye.

[2] = test system: P. acnes MTCC 1951; test: MIC by micro broth dilution (Alamar blue), clindamycin-susceptible P. acnes; format: cell-based, Propionibacterium acnes; conditions: Cutibacterium acnes, MTCC1951; Table 7; against P. acnes; read-out: MIC
Method: (§1) The plates were incubated at 37° C. for 48 h under anaerobic condition for P. acnes and 37° C. for 24 h for S. aureus The plates were read under Bio-Rad plate reader at 595 nm for optical density to generate the dose-response curves. The MIC of the test compound was recorded by addition of Alamar blue dye.
(§2) P. acnes (MTCC 3297, MTCC 1951& CCARM 9010) are cultured in Brain Heart Infusion (BHI) Broth at 37° C. for 48-72 h under anaerobic condition. The test compounds/formulations are initially diluted with suitable solvent and further diluted with BHI broth to get the required concentrations. Samples (100 μl) of different concentrations (prepared by serial dilution) are added to 96-well plate. To the wells, 100 μl of P. acnes BHI broth culture is added [culture turbidity adjusted against 0.5 McFarland standard (approx 1.5×10^8), and further diluted 100-fold with sterile BHI broth]. In addition Growth Control and Sterility Control are created using 100 μl each of P. acnes BHI broth culture and plain BHI broth, respectively.
(§3) Plates are incubated at 37° C. for 48-72 hrs under anaerobic condition. The plate is read under Bio-Rad plate reader @ 595 nm for optical density to generate the dose-response curves. The MIC of the test compound is recorded by addition of Alamar blue dye.
BHI broth and BHI agar media were prepared as per the manufacturer's instruction and autoclaved at 121° C. for 15 minutes. […] For MIC determination testing, gels are dissolved in the solvent and further diluted with BHI broth. Then, 96 wells plate are filled with 100 μl of BHI broth containing drug with different concentration to get the final concentrations of 0.06, 0.13, 0.25, 0.5, 1 and 2 μg/ml in different lanes (lane 1 to lane 6). Remaining lanes of the 96 well plate are used as growth control and sterility control. Finally, P. acnes culture suspension (approx 1.5×10^6) is added in all the wells except sterility control wells and plate is incubated at 37° C. for 48-72 h under anaerobic condition. At the end of 72 h, Alamar blue solution (20 μl) is added into the wells and incubated at 37° C. for 2 h. Plate is visualized for bacterial inhibitions and MIC values of the tested samples are determined. […]

[3] = test system: P. acnes MTCC 1951; format: cell-based, Propionibacterium acnes; conditions: for MPC: P. acnes, 10^10 cells inoculum; for MPC/MIC: ratio against P. acnes
Method: 3 to 4 Petri plates containing 48 h P. acnes culture was suspended in sterile Phosphate buffer saline, PBS (pH 7.2) and turbidity was adjusted to optical density of 1 at 600 nm (10^9 cells/ml). 50 ml of this culture suspension was centrifuged at 4000 rpm for 40 min. The supernatant was discarded and pellet resuspended in 250 μl of sterile PBS. 50 μl of these cell suspensions (10^10 cells) was spread over the plates containing various concentrations of antibiotics (around MIC range). Plates were incubated at 37° C. for 48 h and the lowest concentration of the drug that allowed no growth was taken as its MPC.

[4] = test system: P. acnes CCARM 9010; test: MIC by micro broth dilution (Alamar blue), clindamycin-resistant/nonresponsive P. acnes; format: cell-based, Propionibacterium acnes; conditions: clindamycin-nonresponsive CCARM 9010
Method: as §1, §2, §3

MIC ([1]; P. acnes strain V2-9): 0.06 µg/mL
MIC ([1]; P. acnes strain V2-10): 0.06 µg/mL
MIC ([1]; P. acnes strain V3-9): 0.06 µg/mL
MIC ([1]; P. acnes strain V3-10): 0.06 µg/mL
MIC ([1]; P. acnes strain V4-6): 0.06 µg/mL
MIC ([1]; P. acnes strain V4-8): 0.06 µg/mL
MIC ([1]; P. acnes strain V4-13): 0.06 µg/mL
MIC ([1]; P. acnes strain V5-2): 0.06 µg/mL
MIC ([1]; P. acnes strain V5-5): 0.06 µg/mL
MIC ([1]; P. acnes strain V5-7): 0.06 µg/mL
MIC ([1]; P. acnes strain V6-5): 0.06 µg/mL
MIC ([1]; P. acnes strain V6-6): 0.06 µg/mL
MIC ([1]; P. acnes strain V6-7): 0.06 µg/mL
MIC ([1]; P. acnes strain V7-3): 0.06 µg/mL
MIC ([1]; P. acnes strain V7-4): 0.06 µg/mL
MIC ([1]; P. acnes strain V7-14): 0.06 µg/mL
Compound: CN(C)c1ccc(O)c2c1C[C@H]1C[C@H]3[C@H](N(C)C)C(O)=C(C(N)=O)C(=O)[C@@]3(O)C(O)=C1C2=O [Minocycline, minocycline]

Compound: CC1CCc2c(N3CCC(O)CC3)c(F)cc3c(=O)c(C(=O)O)cn1c23 (stereo not drawn) [Nadifloxacin]
MIC [2]: 0.13 µg/mL (≈ 0.361 µM)
MPC [3]: 1.2 µg/mL
MPC/MIC [3]: 9.2
MPC/MIC ([3]; listed as nadifloxacin): ~8

Compound: CC[C@H]1OC(=O)[C@H](C)[C@@H](O[C@H]2C[C@@](C)(OC)[C@@H](O)[C@H](C)O2)[C@H](C)[C@@H](O[C@@H]2O[C@H](C)C[C@H](N(C)C)[C@H]2O)[C@](C)(O)C[C@@H](C)/C(=N\OCOCCOC)[C@H](C)[C@@H](O)[C@]1(C)O [Roxithromycin]
Activity / bacterial killing, dose response curve (in words) [4]: resistant

Compound: CC1Sc2c(C(=O)O)c(=O)c3cc(F)c(N4CCNCC4)cc3n21 (stereo not drawn) [Ulifloxacin]
MIC [2]: 0.13 µg/mL (≈ 0.372 µM)
MPC [3]: 1.2 µg/mL
MPC/MIC [3]: 9.2
